Laboratory results from PubChem BioAssay (NCI).
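Protocol summary: plate cells (96-well), add compound at 5 concentrations, incubate 48 h, interpolate endpoints linearly. GI50 marks 50% less growth. TGI is the concentration that stops growth completely.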

Experiments:
Test in all cases: inhibition of tumour cell growth, NCI panel, 48 h
HT29 colon = tested on: HT29 colon
A498 renal = tested on: A498 renal
IGROV1 ovarian = tested on: IGROV1 ovarian
SK-MEL-28 melanoma = tested on: SK-MEL-28 melanoma
OVCAR-4 ovarian = tested on: OVCAR-4 ovarian
HCT-15 colon = tested on: HCT-15 colon
CCRF-CEM leukemia = tested on: CCRF-CEM leukemia
U251 CNS = tested on: U251 CNS
SK-MEL-5 melanoma = tested on: SK-MEL-5 melanoma
HCT-116 colon = tested on: HCT-116 colon
SF-268 CNS = tested on: SF-268 CNS
MCF7 breast = tested on: MCF7 breast
HCC-2998 colon = tested on: HCC-2998 colon
SK-MEL-2 melanoma = tested on: SK-MEL-2 melanoma
SNB-75 CNS = tested on: SNB-75 CNS
RXF 393 renal = tested on: RXF 393 renal
MDA-MB-435 = tested on: MDA-MB-435
MDA-MB-231 breast = tested on: MDA-MB-231 breast
SK-OV-3 ovarian = tested on: SK-OV-3 ovarian
HS 578T breast = tested on: HS 578T breast
K-562 leukemia = tested on: K-562 leukemia
SF-539 CNS = tested on: SF-539 CNS
HL-60(TB) leukemia = tested on: HL-60(TB) leukemia
KM12 colon = tested on: KM12 colon
HOP-62 NSCLC = tested on: HOP-62 NSCLC
NCI/ADR-RES ovarian = tested on: NCI/ADR-RES ovarian
UACC-62 melanoma = tested on: UACC-62 melanoma
RPMI-8226 leukemia = tested on: RPMI-8226 leukemia
A549 NSCLC = tested on: A549 NSCLC
SN12C renal = tested on: SN12C renal
T-47D breast = tested on: T-47D breast
OVCAR-3 ovarian = tested on: OVCAR-3 ovarian
HOP-92 NSCLC = tested on: HOP-92 NSCLC
NCI-H23 lung = tested on: NCI-H23 lung
BT-549 breast = tested on: BT-549 breast
EKVX NSCLC = tested on: EKVX NSCLC
SW-620 colon = tested on: SW-620 colon
SF-295 CNS = tested on: SF-295 CNS
COLO 205 colon = tested on: COLO 205 colon
OVCAR-5 ovarian = tested on: OVCAR-5 ovarian
PC-3 prostate = tested on: PC-3 prostate
786-0 renal = tested on: 786-0 renal
DU-145 prostate = tested on: DU-145 prostate
M14 melanoma = tested on: M14 melanoma
MOLT-4 leukemia = tested on: MOLT-4 leukemia
LOX IMVI melanoma = tested on: LOX IMVI melanoma
SNB-19 CNS = tested on: SNB-19 CNS

Compound: ClC1=C(Cl)C(Cl)=C(Cl)C1=Cc1ccc(Cl)cc1Cl
- GI50 (HT29 colon): 0.33 µM
- TGI (HT29 colon): 6.4 µM
- GI50 (A498 renal): 1.27 µM
- TGI (A498 renal): 2.6 µM
- GI50 (IGROV1 ovarian): 0.404 µM
- TGI (IGROV1 ovarian): 3.19 µM
- GI50 (SK-MEL-28 melanoma): 0.567 µM
- TGI (SK-MEL-28 melanoma): 2.8 µM
- GI50 (OVCAR-4 ovarian): 0.53 µM
- TGI (OVCAR-4 ovarian): 5.89 µM
- GI50 (HCT-15 colon): 0.3 µM
- TGI (HCT-15 colon): 1.3 µM
- GI50 (CCRF-CEM leukemia): 0.352 µM
- TGI (CCRF-CEM leukemia): 3.98 µM
- GI50 (U251 CNS): 0.39 µM
- TGI (U251 CNS): 1.49 µM
- GI50 (SK-MEL-5 melanoma): 1.04 µM
- TGI (SK-MEL-5 melanoma): 2.26 µM
- GI50 (HCT-116 colon): 0.206 µM
- TGI (HCT-116 colon): 0.494 µM
- GI50 (SF-268 CNS): 0.308 µM
- TGI (SF-268 CNS): 1.43 µM
- GI50 (MCF7 breast): 0.319 µM
- TGI (MCF7 breast): > 100 µM
- GI50 (HCC-2998 colon): 0.341 µM
- TGI (HCC-2998 colon): 1.14 µM
- GI50 (SK-MEL-2 melanoma): 1.51 µM
- TGI (SK-MEL-2 melanoma): 4.49 µM
- GI50 (SNB-75 CNS): 1.9 µM
- TGI (SNB-75 CNS): 5.51 µM
- GI50 (RXF 393 renal): 0.215 µM
- TGI (RXF 393 renal): 0.477 µM
- GI50 (MDA-MB-435): 0.521 µM
- TGI (MDA-MB-435): 2.05 µM
- GI50 (MDA-MB-231 breast): 0.29 µM
- TGI (MDA-MB-231 breast): 1.15 µM
- GI50 (SK-OV-3 ovarian): 1.74 µM
- TGI (SK-OV-3 ovarian): 5.98 µM
- GI50 (HS 578T breast): 0.522 µM
- TGI (HS 578T breast): > 100 µM
- GI50 (K-562 leukemia): 0.341 µM
- TGI (K-562 leukemia): 2 µM
- GI50 (SF-539 CNS): 0.353 µM
- TGI (SF-539 CNS): 1.4 µM
- GI50 (HL-60(TB) leukemia): 0.403 µM
- TGI (HL-60(TB) leukemia): 3.1 µM
- GI50 (KM12 colon): 0.686 µM
- TGI (KM12 colon): 2.08 µM
- GI50 (HOP-62 NSCLC): 0.396 µM
- TGI (HOP-62 NSCLC): 3.57 µM
- GI50 (NCI/ADR-RES ovarian): 0.276 µM
- TGI (NCI/ADR-RES ovarian): 0.926 µM
- GI50 (UACC-62 melanoma): 0.192 µM
- TGI (UACC-62 melanoma): 0.495 µM
- GI50 (RPMI-8226 leukemia): 0.355 µM
- TGI (RPMI-8226 leukemia): 1.99 µM
- GI50 (A549 NSCLC): 1.7 µM
- TGI (A549 NSCLC): 4.52 µM
- GI50 (SN12C renal): 0.254 µM
- TGI (SN12C renal): 0.743 µM
- GI50 (T-47D breast): 0.252 µM
- TGI (T-47D breast): 1.3 µM
- GI50 (OVCAR-3 ovarian): 0.274 µM
- TGI (OVCAR-3 ovarian): 0.857 µM
- GI50 (HOP-92 NSCLC): 0.633 µM
- TGI (HOP-92 NSCLC): 2.56 µM
- GI50 (NCI-H23 lung): 0.281 µM
- TGI (NCI-H23 lung): 1.14 µM
- GI50 (BT-549 breast): 0.277 µM
- TGI (BT-549 breast): 0.809 µM
- GI50 (EKVX NSCLC): 0.523 µM
- TGI (EKVX NSCLC): 4.37 µM
- GI50 (SW-620 colon): 0.272 µM
- TGI (SW-620 colon): 0.717 µM
- GI50 (SF-295 CNS): 0.733 µM
- TGI (SF-295 CNS): 3.08 µM
- GI50 (COLO 205 colon): 0.486 µM
- TGI (COLO 205 colon): 2.25 µM
- GI50 (OVCAR-5 ovarian): 1.33 µM
- TGI (OVCAR-5 ovarian): 4.01 µM
- GI50 (PC-3 prostate): 0.393 µM
- TGI (PC-3 prostate): 1.64 µM
- GI50 (786-0 renal): 0.241 µM
- TGI (786-0 renal): 0.618 µM
- GI50 (DU-145 prostate): 0.718 µM
- TGI (DU-145 prostate): 3.52 µM
- GI50 (M14 melanoma): 0.234 µM
- TGI (M14 melanoma): 0.635 µM
- GI50 (MOLT-4 leukemia): 0.3 µM
- TGI (MOLT-4 leukemia): 0.98 µM
- GI50 (LOX IMVI melanoma): 0.184 µM
- TGI (LOX IMVI melanoma): 0.384 µM
- GI50 (SNB-19 CNS): 0.811 µM
- TGI (SNB-19 CNS): 2.93 µM

Compound: COC12C=CC(CC1)C(C)(C)C2O (configuration not stated)
- TGI (SNB-75 CNS): > 100 µM

Compound: O=C(Nc1ccc([N+](=O)[O-])cc1)c1ccc([N+](=O)[O-])cc1
- TGI (SNB-75 CNS): > 100 µM
- TGI (SF-295 CNS): > 100 µM
